Data as given in patent US20110275692A1, “SUBSTITUTED GAMMA LACTAMS AS THERAPEUTIC AGENTS” (ALLERGAN, INC., priority 2005, published 2011).
pEC50, pKi: −log10 of the molar value.

Assays:
[1] = target: T1, hEP2/Gqs5 (Homo sapiens, UniProt P43116); experiment: EP2 FLIPR calcium signal; format: cell-based; conditions: HEK-293(EBNA) cells
T1 construct: expressed in transfected cells; host or cells: HEK-293(EBNA)
Protocol: (§1) HEK-293(EBNA) cells, stably expressing one type or subtype of recombinant human prostaglandin receptors (prostaglandin receptors expressed: hDP/Gqs5; hEP1; hEP2/Gqs5; hEP3A/Gqi5; hER4/Gqs5; hFP; hIP; hTP), were cultured in 100 mm culture dishes in high-glucose DMEM medium containing 10% fetal bovine serum, 2 mM 1-glutamine, 250 μg/ml geneticin (G418) and 200 μg/ml hygromycin B as selection markers, and 100 units/ml penicillin G, 100 μg/ml streptomycin and 0.25 μg/ml amphotericin B.
(§2) Cells were seeded at a density of 5×10^4 cells per well in Biocoat® Poly-D-lysine-coated black-wall, clear-bottom 96-well plates (Becton-Dickinson) and allowed to attach overnight in an incubator at 37° C. Cells were then washed two times with HBSS-HEPES buffer (Hanks Balanced Salt Solution without bicarbonate and phenol red, 20 mM HEPES, pH 7.4) using a Denley Cellwash plate washer (Labsystems). […]
(§3) Cells were excited with an Argon laser at 488 nm, and emission was measured through a 510-570 nm bandwidth emission filter (FLIPR™, Molecular Devices, Sunnyvale, Calif.). […] The peak increase in fluorescence intensity was recorded for each well. […] The peak fluorescence change in each drug-containing well was then expressed relative to the controls. […]

[2] = target: T2, EP2 (Homo sapiens, UniProt P43116); experiment: EP2 cAMP; format: cell-based
[3] = target: T3, EP4 receptors (Homo sapiens, UniProt P35408); experiment: EP4 radioligand binding ([3H]PGE2)
T3 construct: expressed in transfected cells; host or cells: HEK-293
Protocol: HEK-293 cells stably expressing the human or feline FP receptor, or EP1, EP2, or EP4 receptors were washed with TME buffer, scraped from the bottom of the flasks, and homogenized for 30 sec using a Brinkman PT 10/35 polytron. TME buffer was added to achieve a final 40 ml volume in the centrifuge tubes (the composition of TME is 100 mM TRIS base, 20 mM MgCl2, […]; 10N HCl is added to achieve a pH of 7.4).
The cell homogenate was centrifuged at 19000 r.p.m. for 20 min at 4° C. using a Beckman Ti-60 rotor. The resultant pellet was resuspended in TME buffer to give a final 1 mg/ml protein concentration, as determined by Biorad assay. Radioligand binding competition assays vs. [^3H-]17-phenyl PGF2α (5 nM) were performed in a 100 μl volume for 60 min. Binding reactions were started by adding plasma membrane fraction. The reaction was terminated by the addition of 4 ml ice-cold TRIS-HCl buffer and rapid filtration through glass fiber GF/B filters using a Brandel cell harvester. The filters were washed 3 times with ice-cold buffer and oven dried for one hour.
[^3H-]PGE2 (specific activity 180 Ci mmol) was used as the radioligand for EP receptors. [^3H] 17-phenyl PGF2α was employed for FP receptor binding studies. […] 17-phenyl PGF2α and non-specific binding determined with 10^−5M of unlabeled PGE2, or 17-phenyl PGF2α, according to receptor subtype studied.

[4] = target: T4, hEP3A/Gqi5 (Homo sapiens, UniProt P43115); experiment: Other receptors: hEP3A FLIPR; format: cell-based
T4 construct: expressed in transfected cells; host or cells: HEK-293(EBNA)
T4 sequence (P43115 1-390): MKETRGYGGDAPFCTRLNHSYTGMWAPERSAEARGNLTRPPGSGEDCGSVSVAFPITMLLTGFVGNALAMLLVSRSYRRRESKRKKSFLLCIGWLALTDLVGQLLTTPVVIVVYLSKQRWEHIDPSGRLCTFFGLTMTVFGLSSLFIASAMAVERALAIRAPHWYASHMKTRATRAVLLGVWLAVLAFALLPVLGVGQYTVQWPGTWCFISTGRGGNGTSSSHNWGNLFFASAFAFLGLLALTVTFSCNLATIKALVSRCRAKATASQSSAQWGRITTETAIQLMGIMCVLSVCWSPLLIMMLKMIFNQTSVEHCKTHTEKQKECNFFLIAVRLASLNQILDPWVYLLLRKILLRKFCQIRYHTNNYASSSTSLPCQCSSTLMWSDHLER
Protocol: as §1, §2, §3

[5] = target: T2, EP2; experiment: EP2 competition binding ([3H]PGE2); parameters: expressed in transfected cells; host or cells: HEK 293; conditions: HEK 293 cells stably expressing human EP2, [3H]PGE2
Protocol: Competition binding experiments were performed in a medium containing Hank's balanced salt solution, Hepes 20 mM, pH 7.3, membranes (˜60 μg protein) or 2×10^5 cells from HEK 293 cells stably expressing human EP2 receptors, [^3H]PGE2 (10 nM) and various concentrations of test compounds in a total volume of […] Reaction mixtures were incubated at 23° C. for 60 min, and were filtered over Whatman GF/B filters under vacuum. Filters were washed three times with 5 ml ice-cold buffer containing 50 mM Tris/HCl (pH 7.3). Non-specific binding was estimated in the presence of excess unlabeled PGE2 (10 μM). Binding data fitted to the binding model for a single class of binding sites, using nonlinear regression analysis. IC50 values thus obtained were converted to Ki using the equation of Ki=(IC50/(1+[L]/KD) where [L] represents PGE2 concentration (10 nM) and KD the dissociation constant for [^3H]PGE2 at human EP2 receptors (40 nM). […]
The cell homogenate was centrifuged at 19000 r.p.m. for 20 min at 4° C. using a Beckman Ti-60 rotor. The resultant pellet was resuspended in TME buffer to give a final 1 mg/ml protein concentration, as determined by Biorad assay. […]
[^3H-]PGE2 (specific activity 180 Ci mmol) was used as the radioligand for EP receptors. […] 17-phenyl PGF2α and non-specific binding determined with 10^−5M of unlabeled PGE2, or 17-phenyl PGF2α, according to receptor subtype studied.

T2 sequence (P43116 whole entry): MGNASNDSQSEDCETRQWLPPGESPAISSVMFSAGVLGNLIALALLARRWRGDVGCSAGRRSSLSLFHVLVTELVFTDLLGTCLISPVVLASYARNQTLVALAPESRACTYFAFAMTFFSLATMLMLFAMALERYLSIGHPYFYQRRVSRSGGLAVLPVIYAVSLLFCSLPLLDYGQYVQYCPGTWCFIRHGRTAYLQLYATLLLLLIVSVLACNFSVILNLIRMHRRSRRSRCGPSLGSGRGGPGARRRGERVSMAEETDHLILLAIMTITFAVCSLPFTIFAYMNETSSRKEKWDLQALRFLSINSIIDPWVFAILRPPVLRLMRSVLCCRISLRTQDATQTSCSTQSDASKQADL
T3 sequence (P35408 whole entry): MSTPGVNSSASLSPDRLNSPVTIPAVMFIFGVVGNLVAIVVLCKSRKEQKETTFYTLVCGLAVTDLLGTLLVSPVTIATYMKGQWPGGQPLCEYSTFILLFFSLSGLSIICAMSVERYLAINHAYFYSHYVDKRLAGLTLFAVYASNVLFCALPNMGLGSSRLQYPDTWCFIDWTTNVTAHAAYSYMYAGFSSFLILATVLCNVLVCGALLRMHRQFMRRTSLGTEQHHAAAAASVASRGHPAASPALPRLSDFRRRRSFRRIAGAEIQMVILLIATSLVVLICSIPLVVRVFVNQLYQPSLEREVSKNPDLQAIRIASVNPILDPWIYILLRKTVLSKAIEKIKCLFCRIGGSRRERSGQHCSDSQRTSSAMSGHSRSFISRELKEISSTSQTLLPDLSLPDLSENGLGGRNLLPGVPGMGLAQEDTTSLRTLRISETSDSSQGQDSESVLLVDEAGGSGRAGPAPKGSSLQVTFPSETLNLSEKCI
T1 sequence (P43116 whole entry): as the sequence (P43116 whole entry) above

## CCCCCC(O)c1ccc(N2C(=O)CC[C@@H]2C=CCc2ccc(C(=O)O)s2)cc1 (stereo partly drawn) [Example 16, 5-((E and Z)-3-{(R)-1-[4-(1-Hydroxy-hexyl)-phenyl]-5-oxo-pyrrolidin-2-yl}-allyl)-thiophene-2-carboxylic acid]
[1]
  pEC50: 6.65
[2]
  pEC50: 7.82
[3]
  pKi: < 5.00
[4]
  pEC50: 5.85
[5]
  pKi: 5.86
